Assay results published in patent US5763596A, “C-4' modified adenosine kinase inhibitors” (Metabasis Therapeutics, Inc., priority 1996, dated 1998).
Structures can show the parent of a compound that is named as a salt.

Key:
Rats (male, Simonsen) = assay: formalin paw model; type: in vivo, rat; set-up: concentration or dose not given beside the values; conditions: oral, 90 min before formalin; for % Inhibition Phase 1 Composite score: 1.7-5 min post-formalin; for % Inhibition Phase 2 Composite score: 10.3-30 min post-formalin
Experimental: In this assay, injection of formalin, an irritant, into the hindpaw of rats typically evokes a biphasic response of pain-related behaviors. Phase 1 of the response which is brief, lasting approximately 0-5 min post-injection,is followed by a more prolonged phase 2, lasting approximately 10-80 min post-injection. Phase 1 behavior is thought to be a direct effect of the irritant on nociceptors at the injection site while phase 2 behavior is thought to include a hyperalgesic component mediated by sensitization of neuronal elements within the spinal cord. Studies from other laboratories have found the first portion of Phase 2 (sometimes referred to as Phase 2a) to be most responsive to pharmacological manipulation.
Rats (male, Simonsen) weighing between 100-200 g, are used in the present experiments. For screening purposes drugs are administered orally 90 min prior to initiation of formalin test. At designated intervals the animals in groups of 4 are placed individually in a small animal restrainer with the right hindpaw accessible through a hole in the bottom of the restrainer. The formalin paw assay is initiated by the injection using a 30G needle of 50 μl of a 5% formalin solution in saline into the right plantar surface of each hindpaw. The rat is then immediately placed in a separate plexiglass box and scoring (described below) of the animal's behavior is begun at 1.7 min after formalin injection. The instantaneous behavior of each animal in a group of 4 was observed and assigned a score once in each 20 second interval. This sequence is repeated over a 30 min period. The scoring protocol is an adaptation of the method published by Dubuisson and Dennis (Pain 4:161-174, 1977) which assigns a score from 0-3 as follows:
0--no discernible favoring of injected paw, weight evenly distributed
1--injected paw is favored, rests lightly on floor
2--injected paw is elevated
3--injected paw is vigorously licked, bitten or shake
Scores are continuously recorded directly onto an Excel spreadsheet. […] 2) the total number of incidences specifically of licking/biting behavior is summed over Phase 2 and mean values determined from 6 different animals with results expressed as % inhibition compared to vehicle control.

adenosine kinase = adenosine kinase (AK) inhibition; type: biochemical, pig heart or recombinant human; conditions: 0.5 μM [U-14C] adenosine, pH 7.0, 20 minutes
Experimental: Adenosine kinase activity was measured essentially as described by Yamada et al. (Yamada, Y., Goto, H., Ogasawara, N. (1988) Biochim. Biophys. Acta 660, 36-43.) with a few minor modifications. […] Natl. Acad. Sci. […] The reactions were incubated for 20 minutes at […] The assay was quenched upon spotting 30 μL aliquots onto 2 cm^2 pieces of Whatman DE81 anion exchange paper. The papersquares were washed for 3 minutes in 6 L distilled/deionized water to remove the unreacted adenosine. The washed squares were rinsed in 95% ethanol and dried in an oven at 100° C. for 10 minutes. The amount of ^14 C-AMP was quantified by scintillation counting.

Rats = assay: anti-inflammatory activity, carrageenan paw; type: in vivo, rat; conditions: 10 mg/kg, swelling after 3 hours; for Carrageenan Paw (% inh) i.p.: 30 min before carrageenan; for Carrageenan Paw (% inh) p.o.: 1 h before carrageenan
Experimental: Carrageenan (Type λ) was suspended in sterile PBS at 1% (w/v), autoclaved for 30 minutes, and stored at room temperature. Rats were pretreated with vehicle or AK inhibitor (10 mg/kg) by oral gavage or i.p. administration and the volume of the left hind paw was measured using a water displacement plethysmometer (Stoelting Co., Wood Dale, Ill.). One hour after oral treatment or 30 minutes after i.p. treatment, the rats were briefly anaesthetized, and 0.1 ml of the carrageenan solution was injected subcutaneously into the planar surface of the left hind paw. The ensuing paw swelling was measured by plethysmometry after 3 hours. The paw volume in milliliters was subtracted from the pre-injection paw volume. Data are presented in Table 8 as the percent inhibition of paw swelling in AK inhibitor treated animals, compared to vehicle treated control animals.

male SA rats [1] = assay: rat skin lesion model, inhibition of neutrophil accumulation induced by carrageenan; type: in vivo
Experimental: The dorsal skin of male SA rats was shaved and carrageenan (Type λ) or phosphate-buffered saline was injected intradermally. Three hours later, the injection sites were biopsied and weighed. Neutrophil content of the skin biopsies was measured as the quantity of myeloperoxidase (MPO) present in a tissue homogenate. The excised, weighed skin pieces were placed in 4 ml 0.5% mixed alkyl trimethylammonium bromide and homogenized at the highest speed for 15 seconds in a Polytron homogenizer (Brinkmann Instruments, Westbury, N.Y.). Lipids were extracted by adding 1 ml of dichloromethane to the homogenate, vortexing vigorously, and centrifuging at 1000 g, 5° C. for 15 min. Fifty μl of each supernatant was added in duplicate to a 96 well assay plate, along with dilutions of human myeloperoxidase standard. Potassium phosphate buffer (pH 6.1) containing 0.36 mg/ml of o-dianisidine dihydrochloride and 0.001% hydrogen peroxide was added (200 μl/well), and the absorbance at 450 nm was read after 5 min incubation at room temperature. The myeloperoxidase content of each skin piece was calculated from a standard curve constructed using least-square regression, and expressed as units of MPO/g of tissue.
AK inhibitors were administered orally using polyethylene glycol-400 as vehicle or intraperitoneally using dimethylsulfoxide as vehicle, at indicated time before skin lesion injection. For each experiment, the average of all values from saline-induced lesions was calculated. This baseline value was then subtracted from values obtained from carrageenan-induced lesions. Percent inhibition for AK inhibitors were calculated from these baseline-corrected values.

Female SA rats = assay: liver toxicity, serum SGOT, SGPT and total bilirubin; type: in vivo, rat; set-up: unit not given here; conditions: 2 x 37.5 μmol/kg i.v. infusion (total 75 μmol/kg), 12 h after second dose
Experimental: Female SA rats (150-200 g) were anesthetized with halothane and cannulated via the internal jugular vein. The animals were allowed to recover for 3 days. […] Twelve hours later, an additional 37.5 μmol kg was infused over 40 minutes (total dose=75 μmol/kg). Twelve hours after the second dose, the animals were anesthetized with halothane and exsanguinated through the descending aorta. Serum was prepared and liver enzymes (serum glutamic-oxaloacetic transaminase (SGOT), serum glutamic-pyruvic transaminase (SGPT)) and total bilirubin in the serum samples were determined by a commercial laboratory.

male SA rats [2] = assay: anticonvulsant activity, maximal electroshock (MES) model; type: in vivo; conditions: Rattus norvegicus, ip, 1 h before MES; >5 / <5: fewer / more than 50% of animals inhibited at 5 mg/kg in initial screen
Experimental: The anticonvulsant activity of the tested compounds was evaluated in male SA rats (100-150 g, Simonsen) using the maximal electroshock (MES) model described in Swinyard et al., Antiepileptic Drugs, 3d Ed. at 85-102 (Levy, et al., eds.), NY: Raven Press (1989). The rats were maintained on a 12/12 light/dark cycle in temperature controlled facilities with free access to food and water. For p.o. administration, the animals are fasted overnight, prior to the experiment. One hour prior to seizure testing, the animals were injected interperitoneally (ip) or orally (per os, po) with one of various doses of test compound dissolved in DMSO or PEG 400.
Maximal electroshock seizures (MES) were induced by administering a 150 mA, 60 Hz current for 0.2 seconds via corneal electrodes using a Wahlquist Model H stimulator. […] This endpoint was expressed as the percentage of animals in which the response was inhibited. Typically, compounds were screened initially at one hour following a dose of 5 mg/kg ip. […] The results for exemplary compounds of the invention are set forth in Table 8, expressed as ED50 values.

Compound	IC50 (adenosine kinase)	Carrageenan Paw (% inh) i.p. (Rats)	average serum Total Bilirubin (Female SA rats)	average serum content of SGOT (Female SA rats)	average serum content of SGPT (Female SA rats)	Carrageenan Paw (% inh) p.o. (Rats)	ED50 at 5 mg/kg (male SA rats [2])	further results
O[C@@H]1[C@H](O)CO[C@H]1n1cc(-c2ccc(F)cc2)c2c(Nc3ccc(F)cc3)ncnc21 [#29]	–	–	0.16	130	30	–	–	–
O[C@@H]1[C@H](O)CO[C@H]1n1cc(-c2ccccc2)c2c(Nc3ccc(CCN4CCNCC4)cc3)ncnc21 [#43, 4-N-[4-(2-(1-Piperazino)ethyl)phenyl]amino-5-phenyl-7-(β-D-erythrofuranosyl)pyrrolo[2,3-d]pyrimidine trihydrochloride salt]	3.5 nM	65%	0.1	99	58	34%	–	–
OCC1(CO)O[C@@H](n2cc(-c3ccccc3)c3c(Nc4ccccc4)ncnc32)[C@H](O)[C@@H]1O [compound 1]	1.2 nM	3%	0.1	65	53	18%	–	–
O[C@H]1[C@H](n2cc(-c3ccccc3)c3c(Nc4ccc(F)cc4)ncnc32)OC2(CC2)[C@H]1O [compound 150]	0.3 nM	78%	1.58	560	155	80%	0.23 mg/kg	–
O[C@@H]1[C@H](O)CO[C@H]1n1cc(-c2ccccc2)c2c(Nc3ccc(Cl)cc3)ncnc21 [compound 299]	40 nM	20%	–	–	–	28%	–	–
Nc1ncnc2c1c(I)cn2[C@@H]1OC[C@@H](O)[C@H]1O [compound 300]	6 nM	90%	–	–	–	91%	–	–
COC[C@]1(CO)O[C@@H](n2cc(-c3ccccc3)c3c(Nc4ccc(F)cc4)ncnc32)[C@H](O)[C@@H]1O [compound 352]	400 nM	–	–	–	–	–	–	–
O[C@@H]1[C@H](O)CO[C@H]1n1nc(-c2ccc(Cl)cc2)c2c(Nc3ccccc3)ncnc21 [compound 432]	90 nM	24%	–	–	–	15%	> 5 mg/kg	–

Continued, in another order:

IC50 (adenosine kinase)	Compound	Carrageenan Paw (% inh) i.p. (Rats)	average serum Total Bilirubin (Female SA rats)	average serum content of SGOT (Female SA rats)	average serum content of SGPT (Female SA rats)	Carrageenan Paw (% inh) p.o. (Rats)	ED50 at 5 mg/kg (male SA rats [2])	further results
45 nM	4-N-Phenylamino-5-phenyl-7-(4-C-methyl-β-D-ribofuranosyl)pyrrolo[2,3- d]pyrimidine [#81]	46%	–	–	–	–	–	% Inhibition Phase 1 Composite score (Rats (male, Simonsen)): 24.8%; % Inhibition Phase 2 Composite score (Rats (male, Simonsen)): 35.1%; % Inhibition Phase 2. Licking/biting (Rats (male, Simonsen)): 67.8%; % inhibition of neutrophil accumulation (male SA rats [1]; p.o., pretreatment 60 min, 10 mg/kg): 0%; % inhibition of neutrophil accumulation (male SA rats [1]; p.o., pretreatment 60 min, 20 mg/kg): 26%; % inhibition of neutrophil accumulation (male SA rats [1]; p.o., pretreatment 60 min, 30 mg/kg): 40%
4 nM	O[C@@H]1[C@H](O)CO[C@H]1n1cc(-c2ccccc2)c2c(Nc3ccccc3)ncnc21 [compound 27]	44%	0.14	114	41	12%	< 5 mg/kg	% Inhibition Phase 1 Composite score (Rats (male, Simonsen)): 25.5%; % Inhibition Phase 2 Composite score (Rats (male, Simonsen)): 47.6%; % Inhibition Phase 2. Licking/biting (Rats (male, Simonsen)): 77.5%; % inhibition of neutrophil accumulation (male SA rats [1]; i.p., pretreatment 30 min, 3 mg/kg): 2%; % inhibition of neutrophil accumulation (male SA rats [1]; i.p., pretreatment 30 min, 10 mg/kg): 59%; % inhibition of neutrophil accumulation (male SA rats [1]; i.p., pretreatment 30 min, 30 mg/kg): 89%; % inhibition of neutrophil accumulation (male SA rats [1]; i.p., pretreatment 60 min, 10 mg/kg): 60%; % inhibition of neutrophil accumulation (male SA rats [1]; i.p., pretreatment 120 min, 10 mg/kg): 14%; % inhibition of neutrophil accumulation (male SA rats [1]; i.p., pretreatment 180 min, 10 mg/kg): 2%; % inhibition of neutrophil accumulation (male SA rats [1]; i.p., pretreatment 240 min, 10 mg/kg): 0%; % inhibition of neutrophil accumulation (male SA rats [1]; i.p., pretreatment 360 min, 10 mg/kg): 0%
70 nM	CN(C)Cc1ccc(Nc2ncnc3c2c(-c2ccccc2)cn3[C@@H]2O[C@@](C)(CO)[C@@H](O)[C@H]2O)cc1 [compound 64]	–	–	–	–	–	> 5 mg/kg	–
2000 nM	C[C@]1(CO)O[C@@H](n2cc(-c3ccccc3)c3c(Nc4ccccc4)ncnc32)[C@H](O)[C@@H]1O [compound 81]	–	–	–	–	–	–	–
600 nM	Nc1ncnc2c1c(I)cn2[C@@H]1OC2(CC2)[C@@H](O)[C@H]1O [compound 175]	–	–	–	–	–	–	–
1 nM	O[C@@H]1[C@H](O)CO[C@H]1n1cc(-c2ccccc2)c2c(Nc3ccc(CCN4CCOCC4)cc3)ncnc21 [compound 301]	21%	–	–	–	39%	–	–
24 nM	COC[C@@]1(CO)O[C@@H](n2cc(-c3ccccc3)c3c(Nc4ccc(F)cc4)ncnc32)[C@H](O)[C@@H]1O [compound 372]	–	–	–	–	–	> 5 mg/kg	–
1100 nM	NC[C@]1(CO)O[C@@H](n2cc(-c3ccccc3)c3c(Nc4ccc(F)cc4)ncnc32)[C@H](O)[C@@H]1O [compound 392]	–	–	–	–	–	–	–
